{"source": "patent US10112913B2", "about": "“Substituted [1,2,4]triazole and imidazole compounds as fungicides” (BASF SE, priority 2014, dated 2018)", "system": "Fusarium culmorum", "test": "Activity against root rot caused by Fusarium culmorum (Fusacu), microtiter test", "assay_type": "cell-based", "settings": "31 ppm; Fusarium culmorum spore suspension; 18° C.; 405 nm, 7 days after inoculation"}
{"smiles": "CC(C)CC#Cc1ccc(C(O)(Cn2cncn2)C(C)(C)C)cc1", "note": "(stereo not shown) [I.C-2]", "values": [{"measurement": "growth (relative growth of the pathogen vs active compound-free control = 100%)", "result": 0, "unit": "%"}]}
